Test results taken from patent US6566403B1 (priority 1997, dated 2003).
Where two headings read alike, the source gives them in different places.

How the values were obtained:
Pythium ultimum = test: Fungitoxicity assay against Pythium ultimum (mycelial dry weight, liquid broth); assay type: cell-based; conditions: for Relative Effectiveness against Pythium ultimum: EC50 of racemic mixture divided by EC50 of the enantiomer, growth 48 hours at 25° C.
Method: (§1) A series of dilutions of each test compound was prepared in dimethyl sulfoxide, and 0.1 ml of each dilution was added to 19.9 ml of a liquid asparagine-sucrose broth (Erwin, D. C. and Katznelson, K., 1971, Can. J. Microbiol. 7, 15) in 9 cm diameter petri dishes to give the desired concentrations of test compound in the medium. Each plate was inoculated with a mycelial plug, 7 mm in diameter, taken from the growing edge of a culture of Pythium ultimum grown on potato dextrose agar. Two replicate plates were used for each treatment. The increase in mycelial dry weight was determined after growth for 48 hours at 25° C. with shaking on a gyrotary shaker at 60 rpm. Pythium EC50 values were calculated from dose response curves. As used herein, the terminology “EC50” means the concentration of test compound required to inhibit growth by 50% as compared to a control lacking the test compound.
(§2) In order to compare the activity of individual isomers with that of the corresponding racemic mixture, the relative effectiveness of each compound was calculated. As used herein, relative effectiveness means the EC50 value for a racemic mixture of the particular compound divided by the EC50 value for one enantiomer. The relative effectiveness of the racemic mixture itself is 1.0.

Botrytis cinerea [1] = test: Fungitoxicity assay against Botrytis cinerea (colony diameter on agar); assay type: cell-based; conditions: EC50 of racemic mixture divided by EC50 of the enantiomer; 48 hours at 25° C.
Method: A series of dilutions of each test compound was prepared in dimethyl sulfoxide and 125 microliters […] of each dilution was added to 25 ml of molten potato dextrose agar to give the desired concentrations of test compound. The mixtures were poured immediately into 9 cm diameter petri dishes. Each plate was inoculated with a 7 mm diameter mycelial plug taken from the growing edge of a 5 day old culture of B. cinerea grown on potato dextrose agar.
as §2

Phytophthora infestans [2] = assay type: in vivo; conditions: tomato, compound applied two days after inoculation
Plasmopara viticola [3] = test: Grape Downy Mildew (GDM); assay type: in vivo; conditions: grape plants, treated before inoculation, scored after 7-8 days
Method: (§3) Cultures of Plasmopara viticola were maintained on grape seedlings derived from tissue culture. Leaves with sporulating mildew were rinsed in water to obtain the desired concentration of spores. A DeVilbiss atomizer was used to apply a suspension of spores to fungicide-treated lower leaves of the grape plants. The plants were kept in a humidity cabinet at 100% relative humidity for 24 hours and then placed in a controlled temperature chamber at 25° C. for 7-8 days before scoring. Disease evaluations were recorded as percent disease control.

Plasmopara viticola [4] = test: Grape Downy Mildew-Curative (GDC); assay type: in vivo; conditions: compound applied two days after inoculation
Method: as §3
The curative properties of the test compounds were evaluated using the same procedure as that set forth above in the section entitled “GRAPE DOWNY MILDEW”, except that the test compound was applied to the plants two days after inoculation with the pathogen.

Phytophthora capsici = test: Fungitoxicity assay against Phytophthora capsici (mycelial dry weight, liquid broth); assay type: cell-based; conditions: EC50 of racemic mixture divided by EC50 of the enantiomer; growth 96 h
Method: as §1
The procedure described above for Pythium ultimum was used except that the mycelial plugs used for inoculation were taken from the growing edge of cultures of Phytophthora capsici grown on V-8 juice agar, pH 7.0, containing 200 ml V-8 juice, 4 g CaCO3, and 20 g agar per liter, and the increase in mycelial dry weight was determined after growth for 96 h.
as §2

Botrytis cinerea [5] = test: Gray Mold on Tomato-Curative (BOC); assay type: in vivo; conditions: tomato plants, compound applied 2 days after inoculation
Method: Botrytis cinerea cultures were maintained on potato dextrose agar. A dextrose solution was used to wash spores from sporulating cultures. A DeVilbiss atomizer was used to apply the resulting spore suspension to tomato plants. The plants were placed in a humidity cabinet at 100% relative humidity, and the test compound was applied to the plants after 2 days. The plants were returned to the humidity cabinet for a further 3-5 days before scoring. Disease evaluations were recorded as percent disease control.

Phytophthora infestans [6] = assay type: in vivo; conditions: tomato seedlings, treated before inoculation, 6 days after inoculation

Compound | Relative Effectiveness against Botrytis cinerea (Botrytis cinerea [1]) | Relative Effectiveness against Pythium ultimum (Pythium ultimum) | TLC percent disease control (Phytophthora infestans [2]; 19 ppm) [%] | TLC percent disease control (Phytophthora infestans [2]; 75 ppm) [%] | TLC percent disease control (Phytophthora infestans [2]; 300 ppm) [%] | GDM percent disease control (Plasmopara viticola [3]; 19 ppm) [%] | GDM percent disease control (Plasmopara viticola [3]; 75 ppm) [%] | GDM percent disease control (Plasmopara viticola [3]; 300 ppm) [%] | GDC percent disease control (Plasmopara viticola [4]; 19 ppm) [%] | GDC percent disease control (Plasmopara viticola [4]; 75 ppm) [%] | GDC percent disease control (Plasmopara viticola [4]; 300 ppm) [%] | Relative Effectiveness against Phytophthora capsici (Phytophthora capsici) | BOC percent disease control (Botrytis cinerea [5]; 19 ppm) [%] | BOC percent disease control (Botrytis cinerea [5]; 75 ppm) [%] | BOC percent disease control (Botrytis cinerea [5]; 300 ppm) [%] | TLB percent disease control (Phytophthora infestans [6]; 19 ppm) [%] | TLB percent disease control (Phytophthora infestans [6]; 75 ppm) [%] | TLB percent disease control (Phytophthora infestans [6]; 300 ppm) [%] | further results
CCC(C)(NC(=O)c1cc(Cl)c(C)c(Cl)c1)C(=O)CCl (stereo not drawn) [Compound 1] |  |  |  |  |  |  |  |  |  |  |  |  |  |  |  |  |  |  | Relative Effectiveness (expected) against Pythium ultimum (Pythium ultimum; 50 % S in the Mixture of racemate and S enantiomer): 1.000; Relative Effectiveness (expected) against Pythium ultimum (Pythium ultimum; 60 % S in the Mixture of racemate and S enantiomer): 1.236; Relative Effectiveness (expected) against Pythium ultimum (Pythium ultimum; 70 % S in the Mixture of racemate and S enantiomer): 1.472; Relative Effectiveness (expected) against Pythium ultimum (Pythium ultimum; 80 % S in the Mixture of racemate and S enantiomer): 1.708; Relative Effectiveness (expected) against Pythium ultimum (Pythium ultimum; 90 % S in the Mixture of racemate and S enantiomer): 1.944; Relative Effectiveness (expected) against Pythium ultimum (Pythium ultimum; 100 % S in the Mixture of racemate and S enantiomer): 2.180
CCC(C)(NC(=O)c1cc(Cl)cc(Cl)c1)C(=O)CCl (racemic) [Compound 2, racemate] | 1.00 | 1.00 |  |  |  |  |  |  |  |  |  |  |  |  |  |  |  |  | 
CC[C@](C)(NC(=O)c1cc(Cl)cc(Cl)c1)C(=O)CCl [Compound 2, S enantiomer] | 1.85 | 2.68 |  |  |  |  |  |  |  |  |  |  |  |  |  |  |  |  | 
CC[C@@](C)(NC(=O)c1cc(Cl)cc(Cl)c1)C(=O)CCl [Compound 2, R enantiomer] | 0.17 | 0.055 |  |  |  |  |  |  |  |  |  |  |  |  |  |  |  |  | 
CCC(C)(NC(=O)c1cc(Cl)c(C)c(Cl)c1)C(=O)CCl (racemic) [Compound 1, racemate] | 1.00 | 1.00 | 80 | 90 | 95 | 99 | 100 | 100 | 50 | 50 | 90 | 1.00 | 50 | 75 | 90 | 85 | 100 | 95 | 
CC[C@](C)(NC(=O)c1cc(Cl)c(C)c(Cl)c1)C(=O)CCl [Compound 1, S enantiomer, (S)-N-(3-chloro-1-ethyl-1-methyl-2-oxopropyl)-3,5-dichloro-4-methylbenzamide] | 2.03 | 2.18 | 90 | 99 | 95 | 99 | 100 | 100 | 75 | 90 | 99 | 2.13 | 75 | 90 | 95 | 90 | 100 | 100 | 
CC[C@@](C)(NC(=O)c1cc(Cl)c(C)c(Cl)c1)C(=O)CCl [Compound 1, R enantiomer, (R)-N-(3-chloro-1-ethyl-1-methyl-2-oxopropyl)-3,5-dichloro-4-methylbenzamide] | <0.076 | 0.037 | 0 | 0 | 0 | 0 | 0 | 0 | 0 | 0 | 0 | 0.0072 | 0 | 0 | 0 | 25 | 50 | 75 | 
